# From patent US6632621B1, “G protein-coupled receptor-like receptors and modulators thereof” (priority 1999, dated 2003)
# *1 amine or outer side, *2 acyl side, *3 side chain or, on linkers, in order; H or OH if unused. Where no end group is shown, it is not given here. [ ]: non-standard residue; d: D form. Tyr(125I) = 125I-iodinated Tyr, O=C([C@H](Cc1ccc(O[*:3])c([125I])c1)N[*:1])[*:2]; Tyr(3-I) = N[C@@H](Cc1ccc(O)c(I)c1)C(=O)O
# T1: CEGPCR4 receptor (Caenorhabditis elegans, UniProt A0A078BTK0)
# T1 sequence (A0A078BTK0 1-376): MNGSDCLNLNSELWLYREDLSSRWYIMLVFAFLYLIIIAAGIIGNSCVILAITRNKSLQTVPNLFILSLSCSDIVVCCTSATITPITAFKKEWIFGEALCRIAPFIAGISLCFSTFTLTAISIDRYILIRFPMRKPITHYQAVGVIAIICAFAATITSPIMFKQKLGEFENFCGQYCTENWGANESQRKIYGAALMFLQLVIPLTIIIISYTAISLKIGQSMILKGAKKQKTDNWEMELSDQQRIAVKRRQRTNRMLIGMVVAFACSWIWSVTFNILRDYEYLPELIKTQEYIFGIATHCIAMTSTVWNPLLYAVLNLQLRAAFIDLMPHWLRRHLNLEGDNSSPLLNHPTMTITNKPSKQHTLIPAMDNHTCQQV
# T2: CEGPCR12h receptor (Caenorhabditis elegans, UniProt Q20275)
# T2 sequence (Q20275 1-402): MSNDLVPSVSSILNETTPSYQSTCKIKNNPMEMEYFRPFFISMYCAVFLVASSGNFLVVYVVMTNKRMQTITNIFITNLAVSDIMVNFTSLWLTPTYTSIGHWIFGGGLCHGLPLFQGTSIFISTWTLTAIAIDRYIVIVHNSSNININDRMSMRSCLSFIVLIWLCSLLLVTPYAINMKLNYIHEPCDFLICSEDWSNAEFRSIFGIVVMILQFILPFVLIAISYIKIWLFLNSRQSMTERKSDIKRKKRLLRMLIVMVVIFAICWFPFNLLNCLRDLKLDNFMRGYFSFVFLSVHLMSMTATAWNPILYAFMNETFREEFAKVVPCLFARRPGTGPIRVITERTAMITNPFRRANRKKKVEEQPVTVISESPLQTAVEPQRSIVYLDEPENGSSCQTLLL
# T3: CEGPCR4 (C. elegans)
# T3 construct: Expressed in CHO cells; also called CEGPCR4 receptor; CEGPCR4/CHO membranes
# T3 chain: T1 sequence (A0A078BTK0 1-376)
# T4: CEGPCR7 (C. elegans), Q18534
# T4 chain: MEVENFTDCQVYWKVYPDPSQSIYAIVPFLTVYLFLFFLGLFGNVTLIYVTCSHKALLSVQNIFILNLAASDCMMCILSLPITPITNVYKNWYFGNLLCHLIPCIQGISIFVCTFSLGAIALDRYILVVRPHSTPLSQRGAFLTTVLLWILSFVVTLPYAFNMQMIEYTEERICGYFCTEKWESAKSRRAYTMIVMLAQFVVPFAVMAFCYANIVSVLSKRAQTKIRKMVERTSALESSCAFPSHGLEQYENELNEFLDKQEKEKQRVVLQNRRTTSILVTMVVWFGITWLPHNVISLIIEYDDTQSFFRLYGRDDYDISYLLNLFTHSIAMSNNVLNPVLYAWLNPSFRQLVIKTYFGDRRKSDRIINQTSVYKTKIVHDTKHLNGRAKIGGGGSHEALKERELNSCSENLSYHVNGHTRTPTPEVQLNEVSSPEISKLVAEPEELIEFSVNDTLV
# B1: 3-Iodo-Y-DVPGVLRF-NH2 (peptide)
# peptide: [Tyr(3-I)]DVPGVLRF-NH2
# modifications: N-terminus assumed
# SMILES: CC(C)C[C@H](NC(=O)[C@@H](NC(=O)CNC(=O)[C@@H]1CCCN1C(=O)[C@@H](NC(=O)[C@H](CC(=O)O)NC(=O)[C@@H](N)Cc1ccc(O)c(I)c1)C(C)C)C(C)C)C(=O)N[C@@H](CCCNC(=N)N)C(=O)N[C@@H](Cc1ccccc1)C(N)=O
# notes: Synthetic flp18 analog; the radioiodinated form is treated as the same molecule
# B2: …-NH2 (AF9) (peptide)
# peptide: GLGPRPLRF-NH2
# Columns and labels:
# [1] = molecular target: CEGPCR19.2 (Caenorhabditis elegans, UniProt H2KZY4); experiment: calcium mobilization assay (FLIPR), transiently transfected CHO cells, CEGPCR19.2; assay type: cell-based, C. elegans; details: Table 13; peptides at 10 μM
# CEGPCR19.2, sequence (H2KZY4 entry or part of it): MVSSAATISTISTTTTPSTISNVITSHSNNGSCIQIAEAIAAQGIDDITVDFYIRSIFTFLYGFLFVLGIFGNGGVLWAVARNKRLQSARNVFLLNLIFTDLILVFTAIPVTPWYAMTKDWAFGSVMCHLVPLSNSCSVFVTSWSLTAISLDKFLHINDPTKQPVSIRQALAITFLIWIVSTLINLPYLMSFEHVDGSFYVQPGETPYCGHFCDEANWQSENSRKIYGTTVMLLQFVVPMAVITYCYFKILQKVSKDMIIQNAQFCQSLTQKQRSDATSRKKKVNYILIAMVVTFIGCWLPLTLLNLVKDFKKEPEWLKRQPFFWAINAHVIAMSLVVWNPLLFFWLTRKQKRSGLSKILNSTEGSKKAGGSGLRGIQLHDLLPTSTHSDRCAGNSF
# Procedure: Changes in intracellular calcium levels are another recognized indicator of […] receptor activity, and such assays can be employed to assay for modulators of GPCR-like receptor activity. For example, CHO cells stably transfected with a GPCR-like receptor expression construct are plated at a density of 4×10^4 cells/well in Packard black-walled 96-well plates specially designed to isolate fluorescent signals to individual wells. The cells are incubated for 60 minutes at 37° C. in modified Dulbecco's PBS (D-PBS), containing 36 mg/L pyruvate and 1 g/L glucose with the addition of 2.5 mM probenecid (Sigma Chemical Co.) and one of four calcium indicator dyes (Fluo3™ AM, Fluo4™ AM, Calcium Green™-1 AM, or Oregon Green™ 488 BAPTA-1 AM) at a concentration of 4 μM. Plates are washed once with modified D-PBS […] 1% fetal bovine serum and incubated for 10 minutes at 37° C. to remove residual dye from the cellular membrane. In addition, a series of washes with modified D-PBS is performed immediately prior to activation of the calcium response.
# Calcium response is initiated by the addition of one or more candidate receptor agonist compounds, or a positive control such as a calcium ionophore A23187 (10 μM), or ATP (4 μM). Fluorescence is measured by Molecular Device's FLIPR with an argon laser, excitation at 488 nm. […] Basal fluorescence of cells was measured for 20 seconds prior to addition of agonist, ATP, or A23187, and was subtracted from the response signal. The calcium signal is measured for approximately 200 seconds, taking readings every two seconds. […]
# This appears especially useful for the assessment of possible activation of orphan GPCRs (i.e., GPCRs having unknown functions and unknown signaling pathways). […] Because the GTPγS assay is known to poorly recognize GPCRs coupled to the Gq class of G-proteins, a Ca^+2 mobilization assay, based on a FLIPR readout, was used as well to evaluate putative Gq-couplcd orphan GPCRs transiently transfected into CHO cells. […] Without the temperature downshift, expression of functional receptor could not be detected. […]
# [2] = molecular target: T1, CEGPCR4 receptor; experiment: Flp18 binding assay: [125I]YDVPGVLRFamide binding and competition on CEGPCR4/CHO membranes; parameters: species or system C. elegans; details: in words
# Procedure: A peptide ligand screening assay that measures ligand binding to a suitable GPCR-like receptor according to the invention is exemplified using a modified C. elegans Flp18 peptide ligand.
# Membranes for use in the assay are derived from cells stably transfected with a GPCR-like receptor expression construct. The transfected cells are grown in 10 cm dishes to subconfluence, rinsed once with 5 ml of ice-cold Ca^2+/Mg^2+—free PBS, and scraped into 5 ml of the same buffer. Cells are pelleted by centrifugation (500×g, 5 minutes), resuspended in 25 mM Tris, pH 7.5, 5 mM EDTA, 5 mM EDTA, pH 7.5 (TEE), and frozen in liquid nitrogen. After thawing, the cells are homogenized using a Dounce homogenizer (one ml TEE per plate of cells), and centrifuged at 1,000×g for 5 minutes to remove nuclei and unbroken cells.
# The homogenate supernatant is centrifuged at 20,000×g for 20 minutes to isolate the membrane fraction, and the membrane pellet is washed once with TEE and resuspended in binding buffer (20 mM HEPES, pH 7.5, 150 mM NaCl, 10 mM MgCl2, 1 mM EDTA). […]
# The peptide ligand screening assay is facilitated by use of 96-well plates Millipore Multiscreen® filtration plates (FB opaque 1.0 μM glass fiber type B, catalog number MAFBNOB50). […] The following day, the plate is counted in a Microbeta® scintillation counter.
# [3] = test system: CEGPCR12c; experiment: [35S]GTPγS binding assay, membranes of CHO cells transfected with CEGPCR12c; assay type: biochemical, C. elegans
# [4] = molecular target: T1, CEGPCR4 receptor; experiment: [35S]GTPγS binding assay, membranes of CHO cells transfected with CEGPCR4; assay type: biochemical, C. elegans
# Procedure: Recombinant pCR3.1 clones encoding invertebrate GPCR-like receptors were transformed into wild-type CHO-K1 cells and functional expression was achieved using a temperature-shift incubation protocol. The CHO-K1 cells were cultured at 37° C. in a humidified atmosphere of 5% CO2 in air in DMEM medium supplemented with 10% heat-inactivated fetal bovine serum (i.e., FBS), 10 μg/ml gentamicin, and 0.1 mM nonessential amino acids to give complete DMEM medium. Additionally, for incubations at temperatures lower than 37° C., the medium was fortified with 10 mM HEPES (pH 7.4). Cells were transfected with recombinant pCR3.1 clones containing GPCR-like receptor DNAs, using LipofectAMINE PLUS™, essentially according to the manufacturer's instructions. […] In separate plastic tubes, PLUS (20 μl/plate; Life Technologies) was added to 0.75 ml/plate of recombinant plasmid DNA in OptiMEM (5 μg/plate; Gibco/BRL—Life Technologies), mixed and incubated at room temperature for 15 minutes. Separately, LipofectAMINE (30 μl/plate) was mixed with 0.75 ml OptiMEM and added to the pre-complexed DNA/PLUS mixture and incubated at room temperature for 15 minutes. […]
# To assess expression, membranes were prepared from transfected CHO-K1 cells. […] Membrane protein concentration was determined using the BCA Protein Assay Reagent from Pierce (Rockford, Ill.), with bovine serum albumin (i.e., BSA) as a standard. […]
# [5] = molecular target: T2, CEGPCR12h receptor; experiment: [35S]GTPγS binding assay, CEGPCR12h expressed in CHO cells; assay type: biochemical, C. elegans
# Procedure: Recombinant pCR3.1 clones encoding invertebrate GPCR-like receptors were transformed into wild-type CHO-K1 cells and functional expression was achieved using a temperature-shift incubation protocol. The CHO-K1 cells were cultured at 37° C. in a humidified atmosphere of 5% CO2 in air in DMEM medium supplemented with 10% heat-inactivated fetal bovine serum (i.e., FBS), 10 μg/ml gentamicin, and 0.1 mM nonessential amino acids to give complete DMEM medium. Additionally, for incubations at temperatures lower than 37° C., the medium was fortified with 10 mM HEPES (pH 7.4). Cells were transfected with recombinant pCR3.1 clones containing GPCR-like receptor DNAs, using LipofectAMINE PLUS™, essentially according to the manufacturer's instructions. […] In separate plastic tubes, PLUS (20 μl/plate; Life Technologies) was added to 0.75 ml/plate of recombinant plasmid DNA in OptiMEM (5 μg/plate; Gibco/BRL—Life Technologies), mixed and incubated at room temperature for 15 minutes. Separately, LipofectAMINE (30 μl/plate) was mixed with 0.75 ml OptiMEM and added to the pre-complexed DNA/PLUS mixture and incubated at room temperature for 15 minutes. The culture medium was then replaced with serum-free transfection medium (DMEM, 5 ml/plate). The DNA-PLUS-LipofectAMINE complex was then added to the plates (1.5 ml/plate) and mixed gently into the medium, followed by a 3 hour incubation at 37° C. in 5% CO2. At this time, the medium was supplemented with complete DMEM medium containing 20% FBS (6.5 ml/plate) and incubation was continued at 37° C. in 5% CO2. After a total of 24 hours at 37° C. in 5% CO2, the medium was replaced with complete DMEM medium fortified with 10 mM HEPES (10 ml/plate) and the cells were moved to an incubator maintained at 28-30° C. in a humidified atmosphere of 5% CO2 in air. The incubation continued for an additional 24 hours, typically at the lower temperature indicated above. A plasmid encoding Green Fluorescent Protein (i.e., GFP, 4 μg/plate) was used for transient GFP expression in CHO-K1 cells to estimate the transfection yields under the same conditions as used for GPCR-like receptor polynucleotides.
# To assess expression, membranes were prepared from transfected CHO-K1 cells. Transfected cells were washed once with ice-cold Dulbecco's phosphate-buffered saline (i.e., PBS), 5 ml per 10 cm plate, and the cells were scraped into 5 ml of the same buffer. Cell suspensions from multiple plates were combined and centrifuged at 500×g for 10 minutes at 4° C. The cell pellet was reconstituted in ice-cold TEE (25 mM Tris, pH 7.4, 5 mM EGTA, 5 mM EDTA). Convenient aliquots were snap-frozen in liquid nitrogen and stored at −70° C. After thawing, the cells were homogenized and centrifuged at 500×g for 5 minutes at 4° C. to pellet nuclei and unbroken cells. Tile supernatant was centrifuged at 47,000×g for 30 minutes at 4° C. The membrane pellet was washed once with TEE, resuspended in 20 mM HEPES, pH 7.4, 100 mM NaCl, 10 mM MgCl2, 1 mM EDTA (assay buffer), distributed into aliquots of 0.5-1.0 ml, and frozen in liquid nitrogen. Membrane aliquots were stored at −70° C. Membrane protein concentration was determined using the BCA Protein Assay Reagent from Pierce (Rockford, Ill.), with bovine serum albumin (i.e., BSA) as a standard.
# Aliquots of cell membranes prepared as described above and stored at −70° C. were thawed, homogenized, and diluted into buffer containing 20 mM HEPES, pH 7.4, 10 mM MgCl2, 1 mM EDTA, and 100 mM NaCl at a concentration of 10-50 μg/ml. Reaction mixtures were prepared in 96-well polypropylene plate, Nunc. Twenty microliters of a 10× putative modulator compound (including but not limited to potential peptide ligands) solution or a water control (20 μl), 18.2 µM GDP (0.11 ml, 10 μM final concentration), and a membrane preparation were mixed and placed on ice. The modulator/ligand-GDP-membrane mixtures were incubated for 20 minutes at room temperature on a shaking platform and then placed on ice.
# [6] = molecular target: T3, CEGPCR4; experiment: radioligand binding to CEGPCR4/CHO membranes
# [7] = molecular target: T4, CEGPCR7 (C. elegans), Q18534; experiment: cell-based or functional assay
# [8] = membranes from cells transfected and maintained at 37° C.
# [9] = temperature shift to 28° C. 24 hours after transfection
molecule,measurement,setting,value
KPNFIRF-NH2,activity at single concentration,[1],peptides active
[^125I-Y]DVPGVLRF-NH2 ([Tyr(125I)]DVPGVLRF-NH2),"Kd, binding to the CEGPCR4/CHO membranes",[2],subnanomolar range
SQPNFLRF-NH2,activity at single concentration,[1],peptides active
PDVDHVFLRF-NH2 [PDVDHVFLRF-NH2],receptor activation by matched ligand,[3]; [8],not detectably activated
same,ligand-induced [35S]GTPγS binding,[3]; [9],significant stimulation
same,receptor activation by matched ligand,[4]; [8],not detectably activated
same,ligand-induced [35S]GTPγS binding,[4]; [9],significant stimulation
same,EC50,[5]; EC50,330 nM
same,EC50,"[5]; EC50 range, Table 11, one range for the group, results apply to all CEGPCR12 isoforms",300 to 500 nM
B1,Kd,[6],< 1 nM
B2,"AF9-induced [35S]GTPγS binding, constant 37° C. (third experiment)",[7],1.4 fold
